From US8217055B2, “Pyrido-pyrazine derivatives useful as herbicidal compounds” (Syngenta Crop Protection LLC, priority 2006, dated 2012)

Legend:
Assay type in all cases: in vivo
test plants = test: Example B1 herbicidal action, post-emergence, all test plants together; conditions: same protocol as Example B1 (post-emergence, 1000 g/ha, 9 days)
Method: (§1) Seeds of a variety of test species were sown in sterilised standard soil in seed trays each having 96 cells. After cultivation for 8 to 9 days cultivation (post-emergence) under controlled conditions in a climatic chamber (cultivation at 23/17° C., day/night; 13 hours light; 50-60% humidity), the plants were treated with an aqueous spray solution of 1000 mg/l of the active ingredient dissolved in 10% DMSO (dimethyl sulfoxide, CAS RN 67-68-5) as a solvent, equivalent to 1000 g/ha. The plants were grown in the climatic chamber after application at (24/19° C., day/night; 13 hours light; 50-60% humidity) and watered twice daily. After 9 days until the test was evaluated (10=total damage to plant, 0=no damage to plant)

Chenopodium album = test: Example B3 herbicidal action, post-emergence, small pots in glasshouse (score 10=total damage to plant, 0=no damage to plant); conditions: Application post-emergence, 1000 g/ha, evaluated after 13 days
Method: (§2) Seeds of a variety of test species were sown in sterilised compost in small pots. After cultivation for seven days (post-emergence) in controlled conditions in the glasshouse (at 24/16° C., day/night; 14 hours light; 65% humidity) the plants were sprayed with 1 mg of the active ingredient, formulated in 2.5 ml acetone/water (50:50) solution, which is equivalent to 1000 g/ha. Once the foliage was dry, the pots were kept in the glasshouse (at 24/16° C., day/night; 14 hours light; 65% humidity), and were watered twice daily. After 13 days the test was evaluated (10=total damage to plant, 0=no damage to plant).

Amaranthus retroflexus [1] = test: as above; conditions: Application post-emergence, 1000 g/ha, evaluated after 13 days
Method: as §2

Alopecurus myosuroides = test: as above; conditions: Application post-emergence, 1000 g/ha, evaluated after 13 days
Method: as §2

Digitaria sanguinalis = test: as above; conditions: Application post-emergence, 1000 g/ha, evaluated after 13 days
Method: as §2

Solanum nigrum = test: Example B1 herbicidal action, post-emergence, seed trays in climatic chamber (score 10=total damage to plant, 0=no damage to plant); conditions: Application post-emergence, 1000 g/ha, evaluated after 9 days
Method: as §1

Nasturtium officinale = test: as above; conditions: Application post-emergence, 1000 g/ha, evaluated after 9 days
Method: as §1

Amaranthus retroflexus [2] = test: as above; conditions: Application post-emergence, 1000 g/ha, evaluated after 9 days
Method: as §1

Stellaria media = test: as above; conditions: Application post-emergence, 1000 g/ha, evaluated after 9 days
Method: as §1

[3] = tested on: test plants (a variety of test species); test: Example B2 herbicidal action, post-emergence, pots in glasshouse, evaluated after 13 days (score 10=total damage to plant; 0=no damage to plant); conditions: same protocol as Example B2 (post-emergence, evaluated after 13 days)
Method: Seeds of a variety of test species were sown in standard soil in pots. After 8 days cultivation (post-emergence) under controlled conditions in a glasshouse (at 24/16° C., day/night; 14 hours light; 65% humidity), the plants were sprayed with an aqueous spray solution derived from the formulation of the technical active ingredient in acetone/water (50:50) solution containing 0.5% Tween 20 (polyoxyethelyene sorbitan monolaurate, CAS RN 9005-64-5). The test plants were then grown in a glasshouse under controlled conditions in a glasshouse (at 24/16° C., day/night; 14 hours light; 65% humidity) and watered twice daily. After 13 days, the test was evaluated (10=total damage to plant; 0=no damage to plant).

CC(C)(C)C(=O)Oc1c(-c2ccccc2OC(F)(F)F)c(=O)n(CCCCCl)c2nccnc12 [C1]
damage to the test plants (test plants): no damage or very little damage

CC(C)(C)C(=O)Oc1c(-c2ccccc2I)c(=O)n(CC(F)F)c2nccnc12 [A36]
CHEAL (damage to plant) (Chenopodium album): 10
AMARE (damage to plant) (Amaranthus retroflexus [1]): 10
ALOMY (damage to plant) (Alopecurus myosuroides): 8
DIGSA (damage to plant) (Digitaria sanguinalis): 5

CC(C)(C)C(=O)Oc1c(-c2cc(C(F)(F)F)ccc2Cl)c(=O)n(CC(F)F)c2nccnc12 [A8]
SOLNI (damage to plant) (Solanum nigrum): 6
NAAOF (damage to plant) (Nasturtium officinale): 7
AMARE (damage to plant) (Amaranthus retroflexus [2]): 6
STEME (damage to plant) (Stellaria media): 7

Cc1ccc(Cl)c(-c2c(OC(=O)C(C)(C)C)c3nccnc3n(CC(F)F)c2=O)c1F [A5]
SOLNI (damage to plant) (Solanum nigrum): 2
NAAOF (damage to plant) (Nasturtium officinale): 5
AMARE (damage to plant) (Amaranthus retroflexus [2]): 4
STEME (damage to plant) (Stellaria media): 7

Cc1cnc2c(OC(=O)C(C)(C)C)c(-c3c(F)ccc(F)c3Cl)c(=O)n(CC(F)F)c2n1 [A30]
damage to the test plants [3]: no damage or very little damage

CC(C)C(=O)Oc1c(-c2c(F)ccc(F)c2Cl)c(=O)n(CC(F)F)c2nccnc12 [A3]
SOLNI (damage to plant) (Solanum nigrum): 5
NAAOF (damage to plant) (Nasturtium officinale): 7
AMARE (damage to plant) (Amaranthus retroflexus [2]): 6
STEME (damage to plant) (Stellaria media): 9

O=c1c(-c2c(F)ccc(F)c2Cl)c(O)c2nccnc2n1CC(F)F [B2, 7-(2-chloro-3,6-difluoro-phenyl)-5-(2,2-difluoro-ethyl)-8-hydroxy-5H-pyrido[2,3-b]pyrazin-6-one]
SOLNI (damage to plant) (Solanum nigrum): 5
NAAOF (damage to plant) (Nasturtium officinale): 8
AMARE (damage to plant) (Amaranthus retroflexus [2]): 6
STEME (damage to plant) (Stellaria media): 8

CC(C)(C)C(=O)Oc1c(-c2ccccc2OC(F)(F)F)c(=O)n(CCC(F)(F)C(F)(F)F)c2nccnc12 [C3]
damage to the test plants (test plants): no damage or very little damage

CC(C)(C)C(=O)Oc1c(-c2c(F)ccc(F)c2Cl)c(=O)n(CC(F)F)c2ncc(-c3ccccc3)nc12 [A31]
damage to the test plants [3]: no damage or very little damage

O=c1c(-c2cccc(C(F)(F)F)c2Cl)c(O)c2nccnc2n1CC(F)F [B1]
SOLNI (damage to plant) (Solanum nigrum): 6
NAAOF (damage to plant) (Nasturtium officinale): 6
AMARE (damage to plant) (Amaranthus retroflexus [2]): 0
STEME (damage to plant) (Stellaria media): 5

CC(C)(C)C(=O)Oc1c(-c2c(F)ccc(F)c2Cl)c(=O)n(CCC(F)(F)F)c2nccnc12 [C6]
SOLNI (damage to plant) (Solanum nigrum): 1
NAAOF (damage to plant) (Nasturtium officinale): 0
AMARE (damage to plant) (Amaranthus retroflexus [2]): 0
STEME (damage to plant) (Stellaria media): 3

CC(C)C(=O)Oc1c(-c2cc(C(F)(F)F)ccc2Cl)c(=O)n(CC(F)F)c2nccnc12 [A7]
SOLNI (damage to plant) (Solanum nigrum): 5
NAAOF (damage to plant) (Nasturtium officinale): 7
AMARE (damage to plant) (Amaranthus retroflexus [2]): 4
STEME (damage to plant) (Stellaria media): 8

CC(C)(C)C(=O)Oc1c(-c2c(F)ccc(F)c2Cl)c(=O)n(CCCCCl)c2nccnc12 [C4]
SOLNI (damage to plant) (Solanum nigrum): 4
NAAOF (damage to plant) (Nasturtium officinale): 0
AMARE (damage to plant) (Amaranthus retroflexus [2]): 0
STEME (damage to plant) (Stellaria media): 1

Cc1ccc(Cl)c(-c2c(OC(=O)C(C)C)c3nccnc3n(CC(F)F)c2=O)c1F [A6]
SOLNI (damage to plant) (Solanum nigrum): 0
NAAOF (damage to plant) (Nasturtium officinale): 7
AMARE (damage to plant) (Amaranthus retroflexus [2]): 5
STEME (damage to plant) (Stellaria media): 7

Cc1cnc2c(n1)c(OC(=O)C(C)(C)C)c(-c1c(F)ccc(F)c1Cl)c(=O)n2CC(F)F [A29]
damage to the test plants [3]: no damage or very little damage

CC(C)(C)C(=O)Oc1c(-c2ccccc2OC(F)(F)F)c(=O)n(CC(F)F)c2nccnc12 [A1]
SOLNI (damage to plant) (Solanum nigrum): 6
NAAOF (damage to plant) (Nasturtium officinale): 8
AMARE (damage to plant) (Amaranthus retroflexus [2]): 0
STEME (damage to plant) (Stellaria media): 7

CC(C)(C)C(=O)Oc1c(-c2c(F)ccc(F)c2Cl)c(=O)n(CCCCl)c2nccnc12 [C5]
damage to the test plants (test plants): no damage or very little damage

CC(C)C(=O)Oc1c(-c2cccc(C(F)(F)F)c2Cl)c(=O)n(CC(F)F)c2nccnc12 [A4]
CHEAL (damage to plant) (Chenopodium album): 10
AMARE (damage to plant) (Amaranthus retroflexus [1]): 10
ALOMY (damage to plant) (Alopecurus myosuroides): 0
DIGSA (damage to plant) (Digitaria sanguinalis): 7
